Here are results for eight molecules from patent publication US5852007A, “Cysteine and serine protease inhibitors containing D-amino acid at the P2 position, methods of making same, and methods of using same” (priority 1997, dated 1998).

Like-named read-outs stand apart in the source and are kept apart here. Square brackets hold non-standard residues; d marks the D form. Peptide text beside a SMILES is read from it. * marks the point of attachment. ξ: configuration not given here. ξF = NC(Cc1ccccc1)C(=O)O; Bn = c1ccc(C*)cc1; Ms = CS(=O)(=O)*; CH2F = FC*

The target in one assay is T1, α-chymotrypsin (Bos taurus, UniProt P00766).
T1 construct: purchased Sigma Chem. Co. C-3142
The assay can be described thus: Inhibition of α-chymotrypsin. The class given is biochemical. Particulars: 10 uM, read-out: Chymotrypsin % I @ 10 uM. The gist of the method: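 Enzyme added to inhibitor first, then reaction started with substrate; no calcium activation needed as enzyme is constitutively active. Fluorogenic substrate hydrolysis read every 5 min up to 30 min ([…]).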

The target of assay [1] is T2, Recombinant human calpain I (Homo sapiens, UniProt P07384).
T2 construct: made in house
T2 sequence (P07384 1-714): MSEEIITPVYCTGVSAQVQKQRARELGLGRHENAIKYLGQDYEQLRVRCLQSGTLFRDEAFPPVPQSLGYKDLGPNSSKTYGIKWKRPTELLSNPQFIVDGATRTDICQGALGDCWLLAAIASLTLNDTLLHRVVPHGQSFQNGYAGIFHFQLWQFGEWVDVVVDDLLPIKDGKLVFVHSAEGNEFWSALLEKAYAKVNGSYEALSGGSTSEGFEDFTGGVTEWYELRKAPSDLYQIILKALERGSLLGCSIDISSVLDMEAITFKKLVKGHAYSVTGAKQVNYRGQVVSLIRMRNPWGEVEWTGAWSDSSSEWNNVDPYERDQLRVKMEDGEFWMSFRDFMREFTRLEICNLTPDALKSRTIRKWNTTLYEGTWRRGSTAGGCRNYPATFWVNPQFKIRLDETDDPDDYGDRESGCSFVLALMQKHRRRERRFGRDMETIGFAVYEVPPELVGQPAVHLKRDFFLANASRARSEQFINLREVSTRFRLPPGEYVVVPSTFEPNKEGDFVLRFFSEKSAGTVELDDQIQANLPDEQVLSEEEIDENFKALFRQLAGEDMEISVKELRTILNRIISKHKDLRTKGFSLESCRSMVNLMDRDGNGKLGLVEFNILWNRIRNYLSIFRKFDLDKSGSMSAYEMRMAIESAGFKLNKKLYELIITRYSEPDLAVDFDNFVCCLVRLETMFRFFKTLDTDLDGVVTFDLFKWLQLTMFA
The assay can be described thus: Rate of inactivation of calpain I (second order rate constant). The class given is biochemical. The conditions noted are these: Table II, read-out: Calpain Inactivation Rates. As to the method:
To evaluate inhibitory activity, stock solutions (40 times concentrated) of exemplary compounds of the invention were prepared in 100% anhydrous DMSO and 5 μL of each inhibitor preparation were aliquoted into each of three wells of a 96-well plate. Recombinant human calpain I, prepared by the method of Meyer et al. (Biochem. J. 314: 511-519 (1996)), was diluted into assay buffer (i.e., 50 mM Tris, 50 mM NaCl, 1 mM EDTA, 1 mM EGTA, and 5 mM-mercaptoethanol, pH 7.5 including 0.2 mM Succ-Leu-TyrMNA) and 175 μL aliquoted into the same wells containing the independent inhibitor stocks as well as to positive control wells containing 5 μL DMSO, but no compound. To start the reaction, 20 μL of 50 mM CaCl2 in assay buffer was added to all wells of the plate, excepting three, which were used as background signal baseline controls. Substrate hydrolysis was monitored every 5 minutes for a total of 30 minutes. Substrate hydrolysis in the absence of inhibitor was linear for up to 15 minutes.
Inhibition of calpain I activity was calculated as the percent decrease in the rate of substrate hydrolysis in the presence of inhibitor (VI) relative to the rate in its absence (VO). Comparison between VO and VI was made within the linear range for substrate hydrolysis. For screening, compounds were tested at 10, 1.0, and 0.1 μM. Compounds having 50% inhibition at 10 μM were considered active. […] The results were plotted as % inhibition versus log inhibitor concentration and the IC50 was calculated from linear regression of the data. Apparent second order rate constants were determined from analysis of reaction progress curves under pseudo-first order conditions. Each determination represents the means of three or more independent single cuvette analyses continually monitored via a Perkin-Elmer LS50B spectrofluorimeter. […]
where y is the product formed at time t. […] The apparent second order rate constant kapp was determined as Kobs /[I]. […]

Another assay concerns the target T3, cathepsin L (Homo sapiens, UniProt P07711).
T3 construct: purchased Calbiochem 219402
The assay can be described thus: Inhibition of cathepsin L. Particulars: for IC50: Table II, read-out: Cat L IC50; for inhibition at 1 µM: Table III, read-out: Cat L % I @ 1 uM. The class given is biochemical. Here is the method: (§1) Additionally,the order of reagents added to the plate was altered because both enzymes are constitutively active. Following inhibitor addition to the plates, appropriate 2× concentrated stock dilutions of the enzyme preparations were made in assay buffer and 100 μl added to each well. The assay was initiated by addition of 100 μl of 2× concentrated stock dilution of substrate in assay buffer.

The target in a further assay is T4, thrombin (Homo sapiens, UniProt P00734).
T4 construct: purchased Sigma Chem. Co. T-7009
The assay can be described thus: Inhibition of thrombin. The class given is biochemical. The conditions noted are these: 10 uM, read-out: Thrombin % I @ 10 uM.

In another assay the target is T5, cathepsin B (Homo sapiens, UniProt P07858).
T5 construct: purchased Calbiochem 219364
The assay can be described thus: Inhibition of cathepsin B. The class given is biochemical. Particulars: for inhibition at 1 µM: Table III, read-out: Cat B % I @ 1 uM. Here is the method:
as §1

The next assay relates to spectrin breakdown. The assay can be described thus: Spectrin breakdown in gerbil global ischemia model (CA1 hippocampal sector, Western blotting). The class given is in vivo. Particulars: FIG. 1. As to the method:
Gerbils were anesthetized using 4% isolflurane volatilized using a gas mixture consisting of 30% O2 and 70% N2. After the induction of anesthesia, a preferred compound of the invention, compound 40 (Example 34), was administered either immediately before the induction of ischemia and 24 hours after the initiation of reperfusion (FIG. 2), or three hours after the initiation of reperfusion and 24 hours after the initiation of reperfusion (FIG. 3). To induce ischemia, the common carotid arteries were exposed and occluded bilaterally for 7 minutes. Gerbil core temperature was carefully regulated at 38° C. by a thermostatically controlled heat lamp. Reperfusion was initiated by the release of the arterial occlusion, whereupon anesthesia was terminated so that the gerbils began to breath room air. The neck incision was closed, and the gerbils were returned to the incubator for one hour to maintain their core temperature. At 1 hour of reperfusion, anesthesia was induced by inhalation of CO2 and the gerbils were sacrificed. The CA1 hippocampal sector was dissected using a hole punch (0.3 mm), and spectrin breakdown products (BDP) were determined by Western Blotting. Spectrin breakdown was quantified by image analysis, and percent inhibition was calculated by integrated optical density. […]
In general terms: Immunoblotting shows a protein as a band on a membrane.

For assay [2], the target named is T2, Recombinant human calpain I. The assay can be described thus: Inhibition of calpain I activity. In kind it is biochemical.
Another assay has as its system hippocampal CA1 neurons. Description: Survival of hippocampal CA1 neurons in gerbil global ischemia model. In kind it is in vivo.

T3 sequence (P07711 114-288 limits assumed): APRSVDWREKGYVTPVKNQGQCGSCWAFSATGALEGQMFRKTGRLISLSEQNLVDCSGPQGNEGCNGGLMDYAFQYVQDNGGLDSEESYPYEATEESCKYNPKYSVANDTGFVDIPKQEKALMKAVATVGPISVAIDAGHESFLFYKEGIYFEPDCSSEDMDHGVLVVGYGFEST
T3 sequence (P07711 292-333 limits assumed): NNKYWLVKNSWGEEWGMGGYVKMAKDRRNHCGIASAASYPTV
Procedure for hippocampal CA1 neurons: Gerbils were anesthetized using 4% isolflurane volatilized using a gas mixture consisting of 30% O2 and 70% N2. […] To induce ischemia, the common carotid arteries were exposed and occluded bilaterally for 7 minutes. Gerbil core temperature was carefully regulated at 38° C. by a thermostatically controlled heat lamp. Reperfusion was initiated by the release of the arterial occlusion, whereupon anesthesia was terminated so that the gerbils began to breath room air. The neck incision was closed, and the gerbils were returned to the incubator for one hour to maintain their core temperature. At 1 hour of reperfusion, anesthesia was induced by inhalation of CO2 and the gerbils were sacrificed.
To quantify histopathological damage, the gerbils were returned to their home cages after one hour reperfusion in the incubator and then sacrificed, as described above, four days later. The brains were rapidly removed, frozen on dry ice, and then sectioned using a cryostat. Twenty micron sections were stained with thionin, and surviving neurons in the hippocampal CA1 sector were counted using computer assisted image analysis.

As a reminder, the IC50 is the concentration that gives 50% inhibition. For the molecule `CS(=O)(=O)N[C@H](CC(=O)N1CCc2ccccc2C1)C(=O)NC(Cc1ccccc1)C(=O)CF` (stereo partly shown) [Compound 20, THIQ-2-C(=O)CH2 CH(NHS(=O)2 CH3)C(=O)-Phe--CH2 F], the inhibition at 10 µM came to 7% at α-chymotrypsin (Table II) and 0% on thrombin (Table II). In addition, the kinact/KI in assay [1] came to 2800 M⁻¹ s⁻¹. Besides, the half-inhibitory concentration (IC50) on cathepsin L was found to be 1800 nM.

Consider `CS(=O)(=O)N[C@H](CSCc1ccccc1)C(=O)NC(Cc1ccccc1)C(=O)CF` (stereo partly shown) [Compound 33, BnS--CH2 CH(NHS(=O)2 CH3)C(=O)-Phe--CH2] (Ms-[dC](Bn)-[ξF]-CH2F), for which the figures for the inhibition at 10 µM on α-chymotrypsin (Table II) and at thrombin (Table II) were 14% and 0%, respectively. Moreover, the kinact/KI in assay [1] amounted to 26600 M⁻¹ s⁻¹.

For `CS(=O)(=O)N[C@H](COCc1ccccc1)C(=O)NC(Cc1ccccc1)C(=O)CF` (stereo partly shown) [Compound 34, BnO--CH2 CH(NHS(=O)2 CH3)C(=O)-Phe--CH2], the inhibition at 10 µM on α-chymotrypsin (Table II) is 14%; at thrombin (Table II), 0%. In addition, in assay [1], the kinact/KI is 21000 M⁻¹ s⁻¹. In addition, the IC50 on cathepsin L was determined as 1800 nM.

In the case of `CS(=O)(=O)N[C@H](COCc1ccccc1)C(=O)N[C@H](C=O)Cc1ccccc1` [Compound 40, BnO--CH2 CH(NHS(=O)2 CH3)C(=O)-Phe--H], the inhibition at 10 µM on α-chymotrypsin (Table II) came out at 23%; on thrombin (Table II), 0%. For the same molecule, the IC50 was found to be 42 nM at cathepsin B (Table II, read-out: Cat B IC50); 9 nM at cathepsin L; 11 nM in assay [2] (Table II). In addition, in the assay with spectrin breakdown, the “reduction of spectrin breakdown” value is listed as “approximately 50%”. Besides, the “suppression of spectrin breakdown in CA1 hippocampal sectors” value in the assay on spectrin breakdown (vs vehicle-treated control gerbils, p<0.0001) is “statistically significant suppression of spectrin breakdown”. Besides, the “number of surviving hippocampal CA1 neurons relative to controls” value in the assay with hippocampal CA1 neurons (dosed immediately before ischemia and 24 hours after initiation of reperfusion, FIG. 2) is “more than doubled the number of surviving hippocampal CA1 neurons”. Besides, in the assay on hippocampal CA1 neurons (dosed immediately before ischemia and 24 hours after initiation of reperfusion, p<0.01, FIG. 2), the “neuroprotection at four days after the ischemic insult” value was “neuroprotective at four days after the ischemic insult”. Moreover, in the assay with hippocampal CA1 neurons (dosed three hours and 24 hours after initiation of reperfusion, p<0.02, FIG. 3), the neuroprotective effect entry is recorded as “neuroprotective effect”.

With `CS(=O)(=O)N[C@H](COCc1ccccc1)C(=O)N[C@@H](Cc1ccccc1)C1N(c2ccccc2)CCN1c1ccccc1` [Compound 132], the inhibition at 10 µM at α-chymotrypsin (Table III) and at thrombin (Table III) was 0% in each case. Also, the values for the inhibition at 1 µM on cathepsin B and on cathepsin L were 78% and 100%, respectively. Besides, the inhibition at 0.1 µM in assay [2] (Table III) is 63%.

`CN1CCN(C)C1[C@H](Cc1ccccc1)NC(=O)[C@@H](COCc1ccccc1)NS(C)(=O)=O` [Compound 133]: the inhibition at 10 µM on α-chymotrypsin (Table III) stood at 1%; at thrombin (Table III), 0%. The inhibition at 1 µM at cathepsin B and at cathepsin L was 100% in each case. Further, the IC50 in assay [2] (Table III) turned out to be 13 nM. Moreover, in assay [2] (Table III), the inhibition at 0.1 µM stood at 93%.

`CCOC(OCC)[C@H](Cc1ccccc1)NC(=O)[C@@H](COCc1ccccc1)NS(C)(=O)=O` [Compound 134]: the inhibition at 10 µM is 10% at α-chymotrypsin (Table III) and 0% on thrombin (Table III). Besides, the inhibition at 1 µM came out at 19% at cathepsin B and 98% at cathepsin L. Also, the inhibition at 0.1 µM in assay [2] (Table III) turned out to be 0%.

Turning to `CS(=O)(=O)N[C@H](COCc1ccccc1)C(=O)N[C@@H](Cc1ccccc1)C(O)OCc1ccccc1` (stereo partly shown) [Compound 135], the results for the inhibition at 10 µM at α-chymotrypsin (Table III) and on thrombin (Table III) were 4% and 0%, respectively. Moreover, the results for the inhibition at 1 µM on cathepsin B and on cathepsin L were 98% and 100%, respectively. Also, the IC50 in assay [2] (Table III) came out at 11 nM. In addition, in assay [2] (Table III), the inhibition at 0.1 µM amounted to 91%.
